Results: patent publication US12540128B2, “Substituted pyridazinones as herbicides” (SYNGENTA CROP PROTECTION AG, priority 2019, dated 2026)

Key:
Type in all cases: in vivo
Details in all cases: 250 g/ha, after 13 days
[1] = system: Amaranthus retoflexus (AMARE); assay: B2 Post-Emergence Efficacy Test 2
Description: (§1) Seeds of a variety of test species are sown in standard soil in pots:— Amaranthus retoflexus (AMARE), Setaria faberi (SETFA), Echinochloa crus-galli (ECHCG), Ipomoea hederacea (IPOHE), Zea Mays (ZEAMX), Abutilon theophrasti (ABUTH). After 8 days cultivation (post-emergence) under controlled conditions in a glasshouse (at 24/16° C., day/night; 14 hours light; 65% humidity), the plants are sprayed with an aqueous spray solution derived from the formulation of the technical active ingredient in acetone/water (50:50) solution containing 0.5% Tween 20 (polyoxyethylene sorbitan monolaurate, CAS RN 9005-64-5). Compounds are applied at 250 g/ha. The test plants are then grown in a glasshouse under controlled conditions in a glasshouse (at 24/16° C., day/night; 14 hours light; 65% humidity) and watered twice daily. After 13 days, the test is evaluated for the percentage damage caused to the plant. The biological activities are assessed on a five point scale (5=80-100%; 4=60-79%; 3=40-59%; 2=20-39%; 1=0-19%). A blank value in the table is indicative that the compound was not tested on that species.

[2] = system: Echinochloa crus-galli (ECHCG); assay: B2 Post-Emergence Efficacy Test 2
Description: as §1

[3] = system: Ipomoea hederacea (IPOHE); assay: B2 Post-Emergence Efficacy Test 2
Description: as §1

[4] = system: Abutilon theophrasti (ABUTH); assay: B2 Post-Emergence Efficacy Test 2
Description: as §1

Zea Mays (ZEAMX) [5] = assay: B2 Post-Emergence Efficacy Test 2
Description: as §1

[6] = system: Amaranthus retoflexus (AMARE); assay: B4 Pre-Emergence Efficacy Test 2
Description: (§2) Seeds of a variety of test species were sown in standard soil in pots: Amaranthus retoflexus (AMARE), Setaria faberi (SETFA), Echinochloa crus-galli (ECHCG), Ipomoea hederacea (IPOHE), Zea Mays (ZEAMX), Abutilon theophrasti (ABUTH). After cultivation for one day (pre-emergence) under controlled conditions in a glasshouse (at 24/16° C., day/night; 14 hours light; 65% humidity), the plants were sprayed with an aqueous spray solution derived from the formulation of the technical active ingredient in acetone/water (50:50) solution containing 0.5% Tween 20 (polyoxyethelyene sorbitan monolaurate, CAS RN 9005-64-5). Compounds are applied at 250 g/ha. The test plants were then grown in a glasshouse under controlled conditions (at 24/16° C., day/night; 14 hours light; 65% humidity) and watered twice daily. After 13 days, the test is evaluated for the percentage damage caused to the plant. The biological activities are assessed on a five point scale (5=80-100%; 4=60-79%; 3=40-59%; 2=20-39%; 1=0-19%). A blank value in the table is indicative that the compound was not tested on that species.

Setaria faberi (SETFA) [7] = assay: B4 Pre-Emergence Efficacy Test 2
Description: as §2

[8] = system: Echinochloa crus-galli (ECHCG); assay: B4 Pre-Emergence Efficacy Test 2
Description: as §2

[9] = system: Ipomoea hederacea (IPOHE); assay: B4 Pre-Emergence Efficacy Test 2
Description: as §2

[10] = system: Abutilon theophrasti (ABUTH); assay: B4 Pre-Emergence Efficacy Test 2
Description: as §2

Zea Mays (ZEAMX) [11] = assay: B4 Pre-Emergence Efficacy Test 2
Description: as §2

Setaria faberi (SETFA) [12] = assay: B2 Post-Emergence Efficacy Test 2
Description: as §1

| Compound | percentage damage caused to the plant, five point scale, AMARE [1] | percentage damage caused to the plant, five point scale, ECHCG [2] | percentage damage caused to the plant, five point scale, IPOHE [3] | percentage damage caused to the plant, five point scale, ABUTH [4] | percentage damage caused to the plant, five point scale, ZEAMX (Zea Mays (ZEAMX) [5]) | percentage damage caused to the plant, five point scale, AMARE [6] | percentage damage caused to the plant, five point scale, SETFA (Setaria faberi (SETFA) [7]) | percentage damage caused to the plant, five point scale, ECHCG [8] | percentage damage caused to the plant, five point scale, IPOHE [9] | percentage damage caused to the plant, five point scale, ABUTH [10] | percentage damage caused to the plant, five point scale, ZEAMX (Zea Mays (ZEAMX) [11]) | percentage damage caused to the plant, five point scale, SETFA (Setaria faberi (SETFA) [12]) |
| --- | --- | --- | --- | --- | --- | --- | --- | --- | --- | --- | --- | --- |
| Cc1nn(C)c(=O)c(-c2c(F)ccc(Cl)c2CCc2nn(C)c3ccccc23)c1O [Compound 1.344] | 3 (3=40-59%) | 2 (2=20-39%) | 3 (3=40-59%) | 4 (4=60-79%) | 1 (1=0-19%) | 3 (3=40-59%) | 2 (2=20-39%) | 2 (2=20-39%) | 3 (3=40-59%) | 4 (4=60-79%) | 0 |  |
| Cc1nn(C)c(=O)c(-c2c(F)ccc(Cl)c2CCc2cnc3c(ccn3C)c2)c1O [Compound 1.345] | 4 (4=60-79%) | 3 (3=40-59%) | 4 (4=60-79%) | 4 (4=60-79%) | 2 (2=20-39%) | 5 (5=80-100%) | 5 (5=80-100%) | 2 (2=20-39%) | 5 (5=80-100%) | 4 (4=60-79%) | 1 (1=0-19%) | 4 (4=60-79%) |
| Cc1nn(C)c(=O)c(-c2c(F)ccc(Cl)c2CCc2ccc3occc3c2)c1O [Compound 1.346] | 2 (2=20-39%) | 4 (4=60-79%) | 3 (3=40-59%) | 4 (4=60-79%) | 2 (2=20-39%) | 3 (3=40-59%) | 0 | 0 | 3 (3=40-59%) | 4 (4=60-79%) | 1 (1=0-19%) | 0 |
| Cc1nn(C)c(=O)c(-c2c(F)ccc(Cl)c2CCc2ccc3ccsc3c2)c1O [Compound 1.347] | 4 (4=60-79%) | 4 (4=60-79%) | 4 (4=60-79%) | 4 (4=60-79%) | 4 (4=60-79%) | 5 (5=80-100%) | 3 (3=40-59%) | 2 (2=20-39%) | 5 (5=80-100%) | 5 (5=80-100%) | 3 (3=40-59%) | 4 (4=60-79%) |
| Cc1nn(C)c(=O)c(-c2c(F)ccc(Cl)c2CCc2ccc3sccc3c2)c1O [Compound 1.348] | 4 (4=60-79%) | 4 (4=60-79%) | 4 (4=60-79%) | 3 (3=40-59%) | 4 (4=60-79%) | 5 (5=80-100%) | 3 (3=40-59%) | 4 (4=60-79%) | 5 (5=80-100%) | 3 (3=40-59%) | 1 (1=0-19%) | 4 (4=60-79%) |
